# Experimental data from ChEMBL document CHEMBL1201862, “PubChem BioAssay data set” (2004).
#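 Following 48 hours of exposure in 96-well plates, responses at five concentrations were used to interpolate endpoints linearly. The concentration for 50% growth inhibition is given as GI50.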 Calls of active or inactive are those of the source. Cut-off read from the data, not from the text of the source: active = GI50 up to about 1.1 µM and inactive = higher.
# Experiments:
# Test in all cases: NCI-60 cell line screen, 48 h
# SN12C = tested on: SN12C
# HCT-116 = tested on: HCT-116
# HCC 2998 = tested on: HCC 2998
# UO-31 = tested on: UO-31
# MDA-MB-231 = tested on: MDA-MB-231
# Hs-578T = tested on: Hs-578T
# OVCAR-5 = tested on: OVCAR-5
# NCI-H460 = tested on: NCI-H460
# SK-MEL-28 = tested on: SK-MEL-28
# KM12 = tested on: KM12
# NCI-H226 = tested on: NCI-H226
# CAKI-1 = tested on: CAKI-1
# HOP-62 = tested on: HOP-62
# NCI/ADR-RES = tested on: NCI/ADR-RES
# SK-MEL-5 = tested on: SK-MEL-5
# UACC-62 = tested on: UACC-62
# MDA-N = tested on: MDA-N
# SK-MEL-2 = tested on: SK-MEL-2
# NCI-H522 = tested on: NCI-H522
# A549 = tested on: A549
# SF-268 = tested on: SF-268
# T47D = tested on: T47D
# SF-539 = tested on: SF-539
# MCF7 = tested on: MCF7
# HCT-15 = tested on: HCT-15
# SK-OV-3 = tested on: SK-OV-3
# ACHN = tested on: ACHN
# MDA-MB-435 = tested on: MDA-MB-435
# IGROV-1 = tested on: IGROV-1
# HOP-92 = tested on: HOP-92
# SNB-19 = tested on: SNB-19
# SF-295 = tested on: SF-295
# SNB-75 = tested on: SNB-75
# Malme-3M = tested on: Malme-3M
# UACC-257 = tested on: UACC-257
# CCRF-CEM = tested on: CCRF-CEM
# OVCAR-8 = tested on: OVCAR-8
# TK-10 = tested on: TK-10
# 786-0 = tested on: 786-0
# OVCAR-3 = tested on: OVCAR-3
# NCI-H23 = tested on: NCI-H23
# U-251 = tested on: U-251
# MOLT-4 = tested on: MOLT-4
# EKVX = tested on: EKVX
# PC-3 = tested on: PC-3
# K562 = tested on: K562
# RXF 393 = tested on: RXF 393
# COLO 205 = tested on: COLO 205
# DU-145 = tested on: DU-145
# HT-29 = tested on: HT-29
# BT-549 = tested on: BT-549
# OVCAR-4 = tested on: OVCAR-4
# LOX IMVI = tested on: LOX IMVI
# M14 = tested on: M14
# SW-620 = tested on: SW-620
compound,measurement,setting,value
COC(=O)c1ccc(C)cc1CC1Cc2cccc(C)c2C1=O (stereo not given),GI50,SN12C,10.2 µM (inactive)
same,GI50,HCT-116,3.68 µM (inactive)
same,GI50,HCC 2998,9.59 µM (inactive)
same,GI50,UO-31,13.4 µM (inactive)
same,GI50,MDA-MB-231,7.1 µM (inactive)
same,GI50,Hs-578T,9.77 µM (inactive)
same,GI50,OVCAR-5,14 µM (inactive)
same,GI50,NCI-H460,4.89 µM (inactive)
same,GI50,SK-MEL-28,7.41 µM (inactive)
same,GI50,KM12,4.08 µM (inactive)
same,GI50,NCI-H226,3.83 µM (inactive)
same,GI50,CAKI-1,10.6 µM (inactive)
same,GI50,HOP-62,17.9 µM (inactive)
same,GI50,NCI/ADR-RES,5.16 µM (inactive)
same,GI50,SK-MEL-5,3.59 µM (inactive)
same,GI50,UACC-62,9.57 µM (inactive)
same,GI50,MDA-N,1.87 µM (inactive)
same,GI50,SK-MEL-2,4.34 µM (inactive)
same,GI50,NCI-H522,2.37 µM (inactive)
same,GI50,A549,6.58 µM (inactive)
same,GI50,SF-268,7.98 µM (inactive)
same,GI50,T47D,5.85 µM (inactive)
same,GI50,SF-539,4.02 µM (inactive)
same,GI50,MCF7,2.38 µM (inactive)
same,GI50,HCT-15,3.1 µM
same,GI50,SK-OV-3,8.05 µM (inactive)
same,GI50,ACHN,18.8 µM (inactive)
same,GI50,MDA-MB-435,1.48 µM (inactive)
same,GI50,IGROV-1,7.96 µM (inactive)
same,GI50,HOP-92,16 µM (inactive)
same,GI50,SNB-19,4.4 µM (inactive)
same,GI50,SF-295,6.49 µM (inactive)
same,GI50,SNB-75,5.02 µM (inactive)
same,GI50,Malme-3M,5.97 µM (inactive)
same,GI50,UACC-257,11.7 µM (inactive)
same,GI50,CCRF-CEM,4.73 µM (inactive)
same,GI50,OVCAR-8,5.08 µM (inactive)
same,GI50,TK-10,12.9 µM (inactive)
same,GI50,786-0,14.6 µM (inactive)
same,GI50,OVCAR-3,4.95 µM (inactive)
same,GI50,NCI-H23,11.1 µM (inactive)
same,GI50,U-251,3.87 µM (inactive)
same,GI50,MOLT-4,4.11 µM (inactive)
same,GI50,EKVX,2.94 µM (inactive)
same,GI50,PC-3,8.34 µM (inactive)
same,GI50,K562,2.77 µM (inactive)
same,GI50,RXF 393,7.87 µM (inactive)
same,GI50,COLO 205,4.9 µM (inactive)
same,GI50,DU-145,11.9 µM (inactive)
same,GI50,HT-29,2.42 µM (inactive)
same,GI50,BT-549,9.77 µM (inactive)
same,GI50,OVCAR-4,19.2 µM (inactive)
same,GI50,LOX IMVI,2.88 µM (inactive)
same,GI50,M14,3.93 µM (inactive)
same,GI50,SW-620,3.72 µM (inactive)
